From patent publication US20150038438A1, “ANTIBACTERIAL COMPOUNDS AND METHODS FOR USE” (PTC THERAPEUTICS, INC., priority 2011, published 2015)
In brackets after ≈: the same amount, converted by molar mass. Where a name gives a salt, the structure may show the parent alone. Read-outs that look alike come from different tables or passages of the source.

What was measured:
Assay in all cases: Antibacterial activity, microbroth dilution method (MIC)
[1] = system: Gram-positive Staphylococcus aureus (S. aureus) 29213; format: cell-based; conditions: Staphylococcus aureus, Gram-positive S. aureus 29213
Source text: (§1) The antibacterial activity from a microbroth dilution method may be presented as the minimum inhibitory concentration (MIC in μg/mL). The MIC value is the lowest concentration of drug which prevents macroscopically visible growth under test conditions.
(§2) Antibacterial activity of test compounds against the super sensitive Gram-negative Escherichia coli (E. coli) BAS849 bacterium, the control Gram-negative E. coli 25922 strain and the Gram-positive Staphylococcus aureus (S. aureus) 29213 bacterium are shown in Table 1.

[2] = system: super sensitive Gram-negative Escherichia coli (E. coli) BAS849; format: cell-based; conditions: Escherichia coli, read-out: MIC, E. coli BAS849
Source text: as §1, §2

[3] = system: control Gram-negative E. coli 25922 strain; format: cell-based, Escherichia coli; conditions: Escherichia coli
Source text: as §1, §2

[4] = super sensitive Gram-negative E. coli BAS849, microbroth dilution

O=C(O)c1c(O)c2c([nH]c1=O)-c1ccc(N3C[C@@H]4[C@H](C3)[C@H]4N(Cc3ccccc3)Cc3ccccc3)cc1OCC2 [Cpd 79, 9-((cis,cis)-6-(dibenzylamino)-3-azabicyclo[3.1.0]hexan-3-yl)-4-hydroxy-2-oxo-1,2,5,6-tetrahydrobenzo[2,3]oxepino[4,5-b]pyridine-3-carboxylic acid trifluoroacetate]
MIC [1]: 12.5 to 150 µg/mL
MIC [2]: 12.5 to 150 µg/mL
MIC [3]: 12.5 to 150 µg/mL

CN(C)c1ccc2c(c1)OCCc1c-2[nH]c(=O)c(C(=O)O)c1O [Cpd 76, 9-(dimethylamino)-4-hydroxy-2-oxo-1,2,5,6-tetrahydrobenzo[2,3]oxepino[4,5-b]pyridine-3-carboxylic acid]
MIC [1]: 12.5 to 150 µg/mL (≈ 39.5 to 474 µM)
MIC [2, 4]: < 1 µg/mL
MIC [3]: 12.5 to 150 µg/mL (≈ 39.5 to 474 µM)

Cl.Cn1c(CNC2CC2)cc2cc3c(cc21)CCCc1c-3[nH]c(=O)c(C(=O)O)c1O [Cpd 36, 10-((cyclopropylamino)methyl)-4-hydroxy-9-methyl-2-oxo-1,2,5,6,7,9-hexahydropyrido[3′,2′:6,7]cyclohepta[1,2-f]indole-3-carboxylic acid hydrochloride]
MIC [1]: 3.5 to 12.5 µg/mL
MIC [2, 4]: < 1 µg/mL
MIC [3]: 1 to 3.5 µg/mL

CC(C)NCc1cc2cc3c(cc2n1C)NCCc1c-3[nH]c(=O)c(C(=O)O)c1O.Cl [Cpd 101, 4-hydroxy-10-((isopropylamino)methyl)-9-methyl-2-oxo-1,2,5,6,7,9-hexahydropyrido[2′,3′:4,5]azepino[3,2-f]indole-3-carboxylic acid hydrochloride]
MIC [1]: 12.5 to 150 µg/mL
MIC [2, 4]: 1 to 3.5 µg/mL
MIC [3]: 3.5 to 12.5 µg/mL

Cl.Cn1c(CN2CCC2)cc2cc3c(cc21)CCCc1cc(C(=O)O)c(=O)[nH]c1-3 [Cpd 57, 10-(azetidin-1-ylmethyl)-9-methyl-2-oxo-1,2,5,6,7,9-hexahydropyrido[3′,2′:6,7]cyclohepta[1,2-f]indole-3-carboxylic acid hydrochloride]
MIC [1]: 12.5 to 150 µg/mL
MIC [2, 4]: < 1 µg/mL
MIC [3]: < 1 µg/mL

CN(C)CCNCc1cc2cc3c(cc2n1C)OCCc1c-3[nH]c(=O)c(C(=O)O)c1O.Cl.Cl [Cpd 182, 10-(((2-(dimethylamino)ethyl)amino)methyl)-4-hydroxy-9-methyl-2-oxo-2,5,6,9-tetrahydro-1H-pyrido[2′,3′:4,5]oxepino[3,2-f]indole-3-carboxylic acid dihydrochloride]
MIC [1]: 12.5 to 150 µg/mL
MIC [2, 4]: 1 to 3.5 µg/mL
MIC [3]: 12.5 to 150 µg/mL

Cl.Cn1c(CNCc2cccnc2)cc2cc3c(cc21)CCCc1c-3[nH]c(=O)c(C(=O)O)c1O [Cpd 52, 4-hydroxy-9-methyl-2-oxo-10-(((pyridin-3-ylmethyl)amino)methyl)-1,2,5,6,7,9-hexahydropyrido[3′,2′:6,7]cyclohepta[1,2-f]indole-3-carboxylic acid hydrochloride]
MIC [1]: 3.5 to 12.5 µg/mL
MIC [2, 4]: < 1 µg/mL
MIC [3]: 3.5 to 12.5 µg/mL

CN(C)CCNCc1cc2cc3c(cc2n1C)CCCc1c-3[nH]c(=O)c(C(=O)O)c1O.Cl.Cl [Cpd 142, 10-(((2-(dimethylamino)ethyl)amino)methyl)-4-hydroxy-9-methyl-2-oxo-1,2,5,6,7,9-hexahydropyrido[3′,2′:6,7]cyclohepta[1,2-f]indole-3-carboxylic acid dihydrochloride]
MIC [1]: 12.5 to 150 µg/mL
MIC [2, 4]: < 1 µg/mL
MIC [3]: 3.5 to 12.5 µg/mL

CCCNCc1cc2cc3c(cc2n1C)OCCc1c-3[nH]c(=O)c(C(=O)O)c1O.Cl [Cpd 169, 4-hydroxy-9-methyl-2-oxo-10-((propylamino)methyl)-2,5,6,9-tetrahydro-1H-pyrido[2′,3′:4,5]oxepino[3,2-f]indole-3-carboxylic acid hydrochloride]
MIC [1]: 3.5 to 12.5 µg/mL
MIC [2, 4]: < 1 µg/mL
MIC [3]: < 1 µg/mL

CN(C)Cc1cc2cc3c(cc2n1C)OCCc1c-3[nH]c(=O)c(C(=O)O)c1O.Cl [Cpd 173, 10-((dimethylamino)methyl)-4-hydroxy-9-methyl-2-oxo-2,5,6,9-tetrahydro-1H-pyrido[2′,3′:4,5]oxepino[3,2-f]indole-3-carboxylic acid hydrochloride]
MIC [1]: 12.5 to 150 µg/mL
MIC [2, 4]: < 1 µg/mL
MIC [3]: < 1 µg/mL

N[C@@H]1[C@H]2CN(c3ccc4c(c3)CCCCc3c-4[nH]c(=O)c(C(=O)O)c3O)C[C@@H]12 [Cpd 127, 10-((cis,cis)-6-amino-3-azabicyclo[3.1.0]hexan-3-yl)-4-hydroxy-2-oxo-1,2,5,6,7,8-hexahydrobenzo[7,8]cycloocta[1,2-b]pyridine-3-carboxylic acid hydrochloride]
MIC [1]: 3.5 to 12.5 µg/mL
MIC [2, 4]: < 1 µg/mL
MIC [3]: < 1 µg/mL

Cl.Cl.Cn1c(CN2CC[C@H](N)C2)cc2cc3c(cc21)CCCc1c-3[nH]c(=O)c(C(=O)O)c1O [Cpd 49, (S)-10-((3-aminopyrrolidin-1-yl)methyl)-4-hydroxy-9-methyl-2-oxo-1,2,5,6,7,9-hexahydropyrido[3′,2′:6,7]cyclohepta[1,2-f]indole-3-carboxylic acid dihydrochloride]
MIC [1]: 12.5 to 150 µg/mL
MIC [2, 4]: 1 to 3.5 µg/mL
MIC [3]: 3.5 to 12.5 µg/mL

CNCCNCc1cc2cc3c(cc2n1C)OCCc1c-3[nH]c(=O)c(C(=O)O)c1O.Cl.Cl [Cpd 181, 4-hydroxy-9-methyl-10-(((2-(methylamino)ethyl)amino)methyl)-2-oxo-2,5,6,9-tetrahydro-1H-pyrido[2′,3′:4,5]oxepino[3,2-f]indole-3-carboxylic acid dihydrochloride]
MIC [1]: 12.5 to 150 µg/mL
MIC [2, 4]: 12.5 to 150 µg/mL
MIC [3]: 12.5 to 150 µg/mL

CCNc1ccc2c(c1)CCCCc1c-2[nH]c(=O)c(C(=O)O)c1O [Cpd 129, 10-(ethylamino)-4-hydroxy-2-oxo-1,2,5,6,7,8-hexahydrobenzo[7,8]cycloocta[1,2-b]pyridine-3-carboxylic acid]
MIC [1]: 3.5 to 12.5 µg/mL (≈ 10.7 to 38.1 µM)
MIC [2, 4]: 1 to 3.5 µg/mL (≈ 3.05 to 10.7 µM)
MIC [3]: 12.5 to 150 µg/mL (≈ 38.1 to 457 µM)

CC1CCc2c([nH]c(=O)c(C(=O)O)c2O)-c2cc3cc(CNC(C)(C)C)n(C)c3cc21.Cl (stereo not drawn) [Cpd 65, 10-((tert-butylamino)methyl)-4-hydroxy-7,9-dimethyl-2-oxo-1,2,5,6,7,9-hexahydropyrido[3′,2′:6,7]cyclohepta[1,2-f]indole-3-carboxylic acid hydrochloride]
MIC [1]: 3.5 to 12.5 µg/mL
MIC [2, 4]: 1 to 3.5 µg/mL
MIC [3]: 3.5 to 12.5 µg/mL

CC1COc2cc(N3CCCC3)ccc2-c2[nH]c(=O)c(C(=O)O)c(O)c21 (stereo not drawn) [Cpd 83, 4-hydroxy-5-methyl-2-oxo-9-(pyrrolidin-1-yl)-1,2,5,6-tetrahydrobenz[2,3]oxepino[4,5-b]pyridine-3-carboxylic acid]
MIC [1]: 3.5 to 12.5 µg/mL (≈ 9.82 to 35.1 µM)
MIC [2, 4]: < 1 µg/mL
MIC [3]: 12.5 to 150 µg/mL (≈ 35.1 to 421 µM)

Cn1c2c(c(O)c(C(=O)O)c1=O)CC=Cc1cc3c(ccn3C)cc1-2 [Cpd 131, 4-hydroxy-1,9-dimethyl-2-oxo-1,2,5,9-tetrahydropyrido[3′,2′:6,7]cyclohepta[1,2-f]indole-3-carboxylic acid]
MIC [1]: 3.5 to 12.5 µg/mL (≈ 10.4 to 37.2 µM)
MIC [2, 4]: < 1 µg/mL
MIC [3]: 12.5 to 150 µg/mL (≈ 37.2 to 446 µM)

Cl.O=C(O)c1c(O)c2c([nH]c1=O)-c1ccc(N3CC4CCCNC4C3)cc1NCC2 (stereo not drawn) [Cpd 98, 9-(hexahydro-1H-pyrrolo[3,4-b]pyridin-6(2H)-yl)-4-hydroxy-2-oxo-2,5,6,7-tetrahydro-1H-benzo[b]pyrido[2,3-d]azepine-3-carboxylic acid hydrochloride]
MIC [1]: 12.5 to 150 µg/mL
MIC [2, 4]: 12.5 to 150 µg/mL
MIC [3]: 12.5 to 150 µg/mL

CCCCCCCNCc1cc2cc3c(cc2n1C)CCCc1c-3[nH]c(=O)c(C(=O)O)c1O.Cl [Cpd 139, 10-((heptylamino)methyl)-4-hydroxy-9-methyl-2-oxo-1,2,5,6,7,9-hexahydropyrido[3′,2′:6,7]cyclohepta[1,2-f]indole-3-carboxylic acid hydrochloride]
MIC [1]: 1 to 3.5 µg/mL
MIC [2, 4]: < 1 µg/mL
MIC [3]: 12.5 to 150 µg/mL

CN(C)CCN(C)Cc1cc2cc3c(cc2n1C)CCCc1c-3[nH]c(=O)c(C(=O)O)c1O.Cl.Cl [Cpd 145, 10-(((2-(dimethylamino)ethyl)(methyl)amino)methyl)-4-hydroxy-9-methyl-2-oxo-1,2,5,6,7,9-hexahydropyrido[3′,2′:6,7]cyclohepta[1,2-f]indole-3-carboxylic acid dihydrochloride]
MIC [1]: 12.5 to 150 µg/mL
MIC [2, 4]: < 1 µg/mL
MIC [3]: 12.5 to 150 µg/mL

Cl.Cn1c(CN)cc2cc3c(cc21)CCCc1c-3[nH]c(=O)c(C(=O)O)c1O [Cpd 35, 10-(aminomethyl)-4-hydroxy-9-methyl-2-oxo-1,2,5,6,7,9-hexahydropyrido[3′,2′:6,7]cyclohepta[1,2-f]indole-3-carboxylic acid hydrochloride]
MIC [1]: 3.5 to 12.5 µg/mL
MIC [2, 4]: < 1 µg/mL
MIC [3]: 1 to 3.5 µg/mL

Cl.Cl.Cn1c(CN2CCC(N)CC2)cc2cc3c(cc21)CCCc1c-3[nH]c(=O)c(C(=O)O)c1O [Cpd 29, 10-((4-aminopiperidin-1-yl)methyl)-4-hydroxy-9-methyl-2-oxo-1,2,5,6,7,9-hexahydropyrido[3′,2′:6,7]cyclohepta[1,2-f]indole-3-carboxylic acid dihydrochloride]
MIC [1]: 12.5 to 150 µg/mL
MIC [2, 4]: < 1 µg/mL
MIC [3]: 1 to 3.5 µg/mL

CCNCc1cc2cc3c(cc2n1C)NCCCc1c-3[nH]c(=O)c(C(=O)O)c1O.Cl [Cpd 104, 11-((ethylamino)methyl)-4-hydroxy-10-methyl-2-oxo-2,5,6,7,8,10-hexahydro-1H-pyrido[2′,3′:4,5]azocino[3,2-f]indole-3-carboxylic acid hydrochloride]
MIC [1]: 12.5 to 150 µg/mL
MIC [2, 4]: 1 to 3.5 µg/mL
MIC [3]: 3.5 to 12.5 µg/mL

CN(C)C1CCN(c2ccc3c(c2)OCCc2c-3[nH]c(=O)c(C(=O)O)c2O)C1.Cl (stereo not drawn) [Cpd 78, 9-(3-(dimethylamino)pyrrolidin-1-yl)-4-hydroxy-2-oxo-1,2,5,6-tetrahydrobenzo[2,3]oxepino[4,5-b]pyridine-3-carboxylic acid hydrochloride]
MIC [1]: 12.5 to 150 µg/mL
MIC [2, 4]: 1 to 3.5 µg/mL
MIC [3]: 12.5 to 150 µg/mL
